Earlier results, collected in patent publication US12137716B2, “Methods of liver disease treatment” (priority 2015, dated 2024).
Entries after “also recorded” stand apart in the source; their conditions may differ.

Key:
[1] = test system: mice fed either a MCD or MD diet
[2] = test system: rats and baboons fed ethanol
[3] = test system: CCl (4) induced cirrhosis; details: CCl4 induced
NASH model mice = details: NASH mouse model
[4] = oral administration
[5] = test system: patients with both alcoholic and non-alcoholic liver diseases; details: patients with liver disease
[6] = test system: ethanol-induced fibrotic mouse model
patients with severe ALD = details: added to corticosteroids

## N[C@@H](CCC(=O)N[C@@H](CS)C(=O)NCC(=O)O)C(=O)O [GSH, Glutathione]
[1]
  GSH in the mitochondria: restored GSH in the mitochondria
  hepatocellular injury: ameliorated hepatocellular injury

## Phosphatidylcholine [PC]
HBV patients
  procollagen-III-peptide levels: reduced levels
HCV patients
  albumin-bound hydroxyproline levels: decreased levels
[2]; CCl4 and ethanol-induced
  liver injury: attenuated CCI4 and ethanol-induced liver injury

## COc1cc(/C=C/C(=O)CC(=O)/C=C/c2ccc(O)c(OC)c2)ccc1O [curcumin, Curcumin]
[3]
  cirrhosis: reverses

## N=C(N)NCCC[C@H](N)C(=O)O [Arginine]
Patients with cirrhosis
  hepatic microcirculation and tissue oxygenation: improves hepatic microcirculation and tissue oxygenation

## C[N+](C)(C)C[C@H](O)CC(=O)[O-] [L-Carnitine]
NASH model mice
  progression of NASH: prevents progression of NASH

## C[S+](CC[C@H](N)C(=O)O)C[C@H]1O[C@@H](n2cnc3c(N)ncnc32)[C@H](O)[C@@H]1O (stereo partly drawn) [SAMe, S-adenosylmethionine]
[4]
  oral bioavailability: low bioavailability
[1]
  GSH in the mitochondria: restored GSH in the mitochondria
  hepatocellular injury: ameliorated hepatocellular injury
[5]
  hepatic glutathione levels: significant increase; also recorded: increases hepatic GSH
[2]; ethanol-fed
  hepatic GSH levels: restored hepatic GSH levels
  mitochondrial lesions and leakage: positive effect on mitochondrial lesions and leakage
[6]
  oxidative stress and hepatic stellate cell activation: attenuate oxidative stress and hepatic stellate cell activation

## CC(=O)N[C@@H](CS)C(=O)O [NAC, N-acetylcysteine]
ethanol-fed rats
  hepatic fatty acid accumulation: decrease hepatic fatty acid accumulation
  inflammatory markers: decrease inflammatory markers
Patients with severe ALD
  hepatorenal syndrome, infection, short-term mortality: decrease hepatorenal syndrome, infection, and short-term mortality
